Patent US5087712A, “Derivatives of platinum (II) with polymethylsiloxane, method for preparing same and antitumor agent based thereon” (priority 1989, dated 1992)

Experiments:
cell immunity = experiment: Effect on cell immunity: time of rejection of a skin graft in tumor-carriers; type: in vivo, male rats of the Vistar line
Description: (§1) The immunological activity of the compound II according to the present invention was studied by variation of the characteristics of cellular and humoral immunity.
(§2) The effect of the compound II according to the present invention on the cell immunity was assessed by the time of rejection of a skin graft in the tumor-carriers. The effect on the humoral immunity was assessed by the number of antibody-forming cells in the spleen and antibodies in the blood serum formed in response to immunization, with ram ertyhrocytes, of both intact animals and the tumor-carriers.
The effect of the compound II according to the present invention on the cell immunity was studied on male rats of the Vistar line with a mass of 150-200 g. The animals were subjected to transplantation, by a standard method, of a skin graft of 2×3 cm size taken from rats of the August line. Then the animals were inoculated, under the thigh skin, with 2×10^8 cells of a regrafted strain of Schvetz's erythroleukosis.
CDDP was administered in a solution, while polymethylsiloxane and the compound II of the present invention--as a powder which was introduced into an opened abdominal cavity following to above-described procedure. The intact animals were used as a control. The time of rejection of the skin graft was fixed by variation of its temperature, colour and elasticity.

inner organs = experiment: Autopsy, morphological and histological investigations of inner organs; type: in vivo, rats; mice; conditions: doses lesser than the toxic one, 30th day after administration
Description: The dead animals were subjected to an autopsy and morpholigical and histological investigations of the inner organs were performed. The animals administered with the compounds in doses lesser than the toxic one were slaughtered after 3, 7, 14 and 30 days. Their inner organs were also subjected to an autopsy.

[1] = system: regrafted Schvetz's erythroleukosis; experiment: Antitumor activity against regrafted Schvetz's erythroleukosis in rats; type: in vivo, white non-descript rats
Description: Their antitumor activity was studies in respect of regrafted Schvetz's erythroleukosis. The antitumor activity of each of the compounds according to the present invention was assessed from the experiments carried out on white non-descript rats with a mass of 150-200 g (10 animals in a group). The animals were hypodermally inoculated (in the thigh) with 2×10^8 cells of a regrafted Schvetz's erythroleukosis strain. On the 4th day after inoculation of the tumor cells, i.e. during the period of the lograithmic phase of the tumor growth the animals were administered with the compounds according to the present invention. They were administered once intraperitoneally or directly into the tumor node as powders. The compounds according to the present invention were administered in maximum effective and minimum effective doses:
The antitumor effect of the compounds according to the present invention was studies in comparison with the control and with the known preparations--CDDP and polymethylsiloxane.
The administered dose of CDDF was 8.1 mg/kg, that of polymethylsiloxane--4,000 mg/kg. […] Polymethylsiloxane was introduced in the form of a powder. Prior to administration the powders of polymethylsiloxane and of the compounds according to the present invention were sterilized by autoclaving in sealed flasks or in package from parchment paper for one hour under the excessive pressure of 1.0 atm and at the temperatuer of 100° C.
The animals were narcotized by way of a hypodermal injection of hexenal in a dose of from 40 to 60 mg/kg in the case of an intraperitoneal adminsitration of the compounds according to the present invention. […]
The antitumor activity of the test compounds was assessed for the following biological characteristics; the degree of inhibition of the tumor growth, survival of animals on the 10th day after inoculation of the tumor cells, life span of the animals.

ovary cancer = experiment: Clinical tests in patients with ovary cancer of the IV clinical stage; type: in vivo, human patients
Excerpt: Depending on the treatment method all the patients were divided into 2 groups.

ovary carcinoma = conditions: in combination with vinblastin, actinomycin and prednisolone; cited from earlier work
humoral immunity = experiment: Effect on humoral immunity: antibody-forming cells in spleen and antibodies in blood serum of tumor-carriers; type: in vivo, rats of the Vistar line
Description: as §1, §2
Use was made of rats of the Vistar line which were incoulated, under the thigh skin, with 2×10^8 cells of a regrafted strain of Schvetz'erthroleukosis. […] On the 8th day after regrafting of the tumor the animals were subjected to immuniation by way of an intravenous administration of ram erythrocytes in the dose of1×10^6 cells. 4 days after immunization the animals were slaughtered by decapitation against the background of ethereal narcosis, the spleen was taken out and the content of antobidy-forming cells was determined threein by Erne'method, as well as titres of agglutinines and hemolysines in the peripheral blood using known methods.
The content of antibody-forming cells was determined for 10^6 splenocytes and for the entire mass of the spleen.

[2] = group I: compound II then CDDP, 1 year after operation, group II: CDDP only, 9 months-1 year
[3] = group I: compound II then CDDP, 2-3.5 years after the operation, group II: CDDP only
[4] = 4 days after immunization with ram erythrocytes

N.N.[Cl][Pt][Cl] [CDDP, cis-dichlorodiammonioplatinum (II)]
Effect on characteristics of the cell immunity of tumor-carriers (in words) (cell immunity): does not substantially affect the characteristics of the cell immunity of the tumor-carriers | Time of rejection of a skin graft (cell immunity; intraperitoneal CDDP 5.6, polymethylsiloxane 2,000, compound II 550 mg/kg): 13.5 ± 0.5 days | Degree and restoration of histological changes (inner organs): pronounced to even greater extent than in the case of administration of the compounds according to the present invention, they were only partly restored on the 30th day after administration | Survival of animals ([1]; on the 10th day after inoculation of the tumor cells): 80% | Life span ([1]; rats with Schvetz's erythroleukosis): 11.5 ± 0.5 days | Degree of inhibition of the tumor growth ([1]; rats, single intraperitoneal or intratumoral administration on 4th day after inoculation): 78% | Full remission, number of patients (ovary cancer; group I (30): compound II then CDDP, group II (47): CDDP only): 14 patients | Full remission, share of patients (ovary cancer; group I (30 patients): compound II during operation then intraperitoneal CDDP, 2-3.5 years, group II (47 patients): CDDP only): 30% | Deaths, number of patients (ovary cancer; [2]): 9 persons | Deaths, share of patients (ovary cancer; [2]): 19% | Partial remission and stabilization of the process, number of patients (ovary cancer; [3]): 14 persons | Partial remission and stabilization of the process, share of patients (ovary cancer; [3]): 30% | Recurrence of the tumor growth, number of patients (ovary cancer; group II: CDDP only): 10 persons | Recurrence of the tumor growth, share of patients (ovary cancer; group II: CDDP only): 21% | Effectiveness of therapy of ovary carcinoma (ovary carcinoma): 100% | Effect on humoral immunity (in words) (humoral immunity): inhibits the humoral immunity | Content of antibody-forming cells for the entire spleen (humoral immunity; [4]): (36.42 ± 2.15) × 10^3 | Content of antibody-forming cells per 10^6 of splenocytes (humoral immunity; [4]): 20.50 ± 2.15
